Results on eight compounds are retold here after ChEMBL document CHEMBL3745625, “Design and synthesis of novel androgen receptor antagonists via molecular modeling” (Bioorg Med Chem, 2016).

The subject of data set [1] is LNCaP. Briefly: Cytotoxicity against human LNCAP cells assessed as reduction in cell viability after 4 days by MTT assay in presence of DHT and E2. It counts as functional, cell-based. As to conditions: 96 h. (In general: Tetrazolium assays rely on reduction of a dye to a coloured formazan, in cell work by metabolically active cells.)
In data set [2] the target is T1, Estrogen receptor (Homo sapiens) (UniProt P03372).
T1 sequence (whole entry): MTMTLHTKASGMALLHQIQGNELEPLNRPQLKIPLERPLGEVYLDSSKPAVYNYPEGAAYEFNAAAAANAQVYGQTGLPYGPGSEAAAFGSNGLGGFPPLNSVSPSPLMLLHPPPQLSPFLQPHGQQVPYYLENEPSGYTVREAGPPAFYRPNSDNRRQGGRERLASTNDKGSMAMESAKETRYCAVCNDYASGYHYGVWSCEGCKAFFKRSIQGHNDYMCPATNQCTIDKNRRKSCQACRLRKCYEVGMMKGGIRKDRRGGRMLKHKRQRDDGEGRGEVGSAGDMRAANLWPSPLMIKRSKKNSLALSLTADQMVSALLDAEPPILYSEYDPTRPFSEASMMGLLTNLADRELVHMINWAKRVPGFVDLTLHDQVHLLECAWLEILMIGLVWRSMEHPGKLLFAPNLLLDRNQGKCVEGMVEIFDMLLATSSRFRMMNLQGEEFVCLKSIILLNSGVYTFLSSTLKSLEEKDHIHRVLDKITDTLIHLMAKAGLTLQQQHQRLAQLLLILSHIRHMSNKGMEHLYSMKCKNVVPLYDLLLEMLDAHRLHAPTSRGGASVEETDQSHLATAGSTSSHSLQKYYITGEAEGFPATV
Briefly: Antagonist activity at human estrogen receptor expressed in mouse C2C12 cells at 5 uM pretreated for 1 day measured 36 hrs post transfection by luciferase reporter gene assay in presence of ER agonist estradiol. It counts as cell-based. In general terms: In a reporter assay the amount or activity of a reporter protein is the signal.

In data set [3] the target is T2, Androgen receptor (Mus musculus) (UniProt P19091).
T2 sequence (whole entry): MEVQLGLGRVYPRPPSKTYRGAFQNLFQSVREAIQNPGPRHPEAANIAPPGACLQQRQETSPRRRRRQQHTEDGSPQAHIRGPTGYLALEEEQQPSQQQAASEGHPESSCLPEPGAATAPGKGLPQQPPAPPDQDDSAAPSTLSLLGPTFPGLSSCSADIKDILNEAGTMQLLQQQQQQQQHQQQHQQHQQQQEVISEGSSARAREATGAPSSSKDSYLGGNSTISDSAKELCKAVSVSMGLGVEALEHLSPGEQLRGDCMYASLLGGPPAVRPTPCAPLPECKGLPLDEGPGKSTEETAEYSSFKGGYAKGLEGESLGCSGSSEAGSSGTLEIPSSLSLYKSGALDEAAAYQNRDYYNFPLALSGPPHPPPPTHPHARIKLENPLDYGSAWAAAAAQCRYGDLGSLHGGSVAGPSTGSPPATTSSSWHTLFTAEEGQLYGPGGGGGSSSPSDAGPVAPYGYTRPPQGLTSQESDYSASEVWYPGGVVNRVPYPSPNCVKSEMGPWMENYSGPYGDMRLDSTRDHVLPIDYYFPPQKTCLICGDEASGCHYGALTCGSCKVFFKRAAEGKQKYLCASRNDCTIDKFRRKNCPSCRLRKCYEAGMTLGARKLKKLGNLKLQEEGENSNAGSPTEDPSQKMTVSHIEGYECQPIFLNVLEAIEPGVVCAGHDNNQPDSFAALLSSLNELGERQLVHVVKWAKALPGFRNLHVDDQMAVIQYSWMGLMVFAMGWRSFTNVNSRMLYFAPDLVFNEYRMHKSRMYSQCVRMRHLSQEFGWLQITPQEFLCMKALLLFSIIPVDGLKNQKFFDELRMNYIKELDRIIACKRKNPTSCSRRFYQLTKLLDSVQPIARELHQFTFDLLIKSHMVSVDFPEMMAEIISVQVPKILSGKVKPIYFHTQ
Briefly: Antagonist activity at mouse androgen receptor expressed in mouse C2C12 cells at 5 uM pretreated for 1 day measured 36 hrs post transfection by luciferase reporter gene assay in presence of DHT. It counts as cell-based.

In data set [4] the test system is LNCaP. Briefly: Cytotoxicity against human LNCAP cells assessed as growth inhibition at 10 uM after 5 days by MTT assay relative to control. It counts as functional.
Data set [5] concerns the target T3, Glucocorticoid receptor (Homo sapiens) (UniProt P04150).
T3 sequence (whole entry): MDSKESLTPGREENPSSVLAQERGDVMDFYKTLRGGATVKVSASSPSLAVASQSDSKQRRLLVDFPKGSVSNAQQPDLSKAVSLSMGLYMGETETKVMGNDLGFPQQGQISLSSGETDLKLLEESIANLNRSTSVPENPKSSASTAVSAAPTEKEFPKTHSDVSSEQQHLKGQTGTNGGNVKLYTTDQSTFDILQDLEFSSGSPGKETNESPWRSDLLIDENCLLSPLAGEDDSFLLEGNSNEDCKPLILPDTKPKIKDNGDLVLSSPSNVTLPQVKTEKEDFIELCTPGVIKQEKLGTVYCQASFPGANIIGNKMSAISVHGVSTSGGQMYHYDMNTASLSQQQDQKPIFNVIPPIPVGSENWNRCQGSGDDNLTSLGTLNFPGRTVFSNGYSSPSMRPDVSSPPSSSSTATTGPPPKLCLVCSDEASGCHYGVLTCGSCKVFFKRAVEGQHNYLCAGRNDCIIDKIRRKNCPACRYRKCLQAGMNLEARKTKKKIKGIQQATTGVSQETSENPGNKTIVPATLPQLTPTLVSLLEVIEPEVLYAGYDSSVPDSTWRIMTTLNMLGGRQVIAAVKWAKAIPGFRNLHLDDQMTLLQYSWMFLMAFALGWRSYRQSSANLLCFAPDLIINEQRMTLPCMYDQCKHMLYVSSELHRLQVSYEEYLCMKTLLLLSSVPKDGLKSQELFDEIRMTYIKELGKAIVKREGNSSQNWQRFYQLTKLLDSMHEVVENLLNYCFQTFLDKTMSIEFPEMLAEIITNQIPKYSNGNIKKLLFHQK
Description: Antagonist activity at glucocorticoid receptor (unknown origin) expressed in mouse C2C12 cells at 5 uM pretreated for 1 day measured 36 hrs post transfection by luciferase reporter gene assay in presence of GR agonist […]. It counts as cell-based.

In a further data set the test system is C2C12. Description: Cytotoxicity against mouse C2C12 cells assessed as reduction in cell viability at 10 uM after 3 days by MTT assay. It counts as cell-based. The following applies: c2c12, 72 h.
For data set [6], the system named is LNCaP. Briefly: Cytotoxicity against human LNCAP cells assessed as reduction in cell viability at 10 uM after 3 days by MTT assay in presence of DHT and E2. It counts as functional, cell-based.

The source made the active and inactive calls. The rule behind the calls is not given here.

As usually defined, the IC50 is the concentration at which inhibition is half-maximal. In the case of `CC(O)(CS(=O)(=O)c1ccc(F)cc1)C(=O)Nc1ccc(C#N)c(C(F)(F)F)c1` (stereo not drawn) [BICALUTAMIDE], the IC50 in the data set on LNCaP [1] came out at 2380 nM.

As for `Cc1cccc(NC(=O)c2ccc(N3CCc4cc(O)ccc4C3)nc2)n1`, the inhibition result in data set [2] and in data set [3] was “Active” throughout. In addition, the “growth inhibition (GI)” value in the data set with LNCaP [4] is “Active”. In the data set on LNCaP [1], the IC50 is 1250 nM. Moreover, the inhibition result in data set [5] is “inactive”. Moreover, the Activity entry in the data set on C2C12 is “Non-toxic”. The outcome in the data set on LNCaP [6] was Active.

As to `CCCCOc1ccc2c(c1)CCN(c1ccc(C(=O)Nc3cccc(C)n3)cn1)C2`, the inhibition entry in data set [3] was “Active”. Further, in the data set on LNCaP [4], the “growth inhibition (GI)” value was “Active”. For the same compound, in the data set on LNCaP [1], the IC50 was determined as 410 nM. In addition, the inhibition result in data set [5] was “inactive”. In the data set on C2C12, the Activity result is “Non-toxic”. In addition, the result in the data set with LNCaP [6] was Active.

Regarding `Cc1cccc(NC(=O)c2ccc(N3CCc4cc(OCCCc5ccccc5)ccc4C3)nc2)n1`, the inhibition result in data set [3] was “Active”. The inhibition of growth at 10 µM in the data set on LNCaP [4] (120 h, read-out: GI) was 80%. Further, the IC50 in the data set with LNCaP [1] worked out at 350 nM. Also, the inhibition result in data set [5] is “inactive”. For the same compound, in the data set on C2C12, the Activity entry is reported as “Non-toxic”. The result with LNCaP [6] was Active.

Consider `CCCOc1ccc2c(c1)CCN(c1ccc(C(=O)Nc3cccc(C)n3)cn1)C2`, for which the inhibition entry in data set [3] is “Active”. Moreover, in the data set on LNCaP [4], the “growth inhibition (GI)” value is “Active”. Besides, in the data set with LNCaP [1], the IC50 amounted to 1010 nM. The inhibition result in data set [5] was “inactive”. The Activity entry in the data set with C2C12 is listed as “Non-toxic”. In the data set on LNCaP [6], the result was Active.

Turning to `COc1cccc(NC(=O)c2cnc(N3CCc4ccccc4C3)nc2)c1`, the inhibition entry in data set [3] was “Active”. Besides, the half-inhibitory concentration (IC50) with LNCaP [1] worked out at 580 nM. In data set [5], the inhibition result was “inactive”. Further, in the data set with C2C12, the Activity entry is recorded as “Non-toxic”. Moreover, in the data set with LNCaP [6], the outcome was Active.

For the compound `COc1ccc2c(c1)CCN(c1cnc(C(=O)Nc3cccc(C)n3)cn1)C2`, the inhibition entry in data set [3] is “Active”. In the data set with LNCaP [4], the “growth inhibition (GI)” value is “Active”. The IC50 in the data set with LNCaP [1] amounted to 490 nM. Besides, the inhibition result in data set [5] is “inactive”. Besides, the Activity result in the data set on C2C12 is “Non-toxic”. In addition, in the data set with LNCaP [6], the result was Active.

`Cc1cccc(NC(=O)c2ccc(N3CCc4ccccc4C3)nc2)n1`: the IC50 with LNCaP [1] was determined as 4460 nM.
